Experimental data published in article PMC9569450, “Dual Effect of Tryptamine on Prostate Cancer Cell Growth Regulation: A Pilot Study” (International Journal of Molecular Sciences, 2022).

What was measured:
PC-3 cells [1] = assay: Transwell migration assay, PC-3; format: cell-based, human; settings: 24 h
Experimental: (§1) Cell migration was evaluated using 8-μm transwell filters (Costar Corning, Schiphol-Rijk, The Netherlands). Cells at a density of 5 × 10^4 were seeded to the upper chamber, and the chamber was filled with FBS-free medium. Cells were incubated overnight to allow for adherence; then, the lower chamber was replaced with 10% FBS medium as a chemo-attractant. Following a 24 h incubation, non-migrating cells on the upper surface of the insert membrane were gently removed by cotton swabs and migrated cells on the lower surface of the insert membrane were fixed by 4% paraformaldehyde and stained with 0.1% crystal violet for 20 min. Migrated cells on each membrane were photographed and counted at 100× magnification field at six random fields.

PC-3 xenograft tumors = assay: PC-3 xenograft mouse model; format: in vivo
Experimental: Five-week-old male BALB/c nude mice were purchased from Charles River Laboratories (Beijing, China) and raised in a temperature and humidity-controlled environment (25 ± 2 °C, 50% ± 10% humidity) with a standard 12 h light-dark cycle with food and water in cages under germ-free conditions (SCXK2021-0006). All procedures involving animals and their care were approved by the Institutional Animal Care and Use Committee of the Ocean University of China in accordance with institutional and National Institutes of Health guidelines (OUC-SMP-2022-01-01). PC-3 cells (4 × 10^6 dissolved in 150 μL PBS) were injected subcutaneously into the armpit area of each mouse. For the first treatment group, when tumors reached 50 mm^3, 80 mg/kg of tryptamine dissolved in normal saline with 0.1% formic acid was administered intraperitoneally once every other day for 32 days (n = 6). […] The control groups were administrated with the vehicle. The tumor volume (mm^3) was calculated based on the formula:(2) Tumor volume (mm^3)=length×width^2/2

PC-3 cells [2] = assay: MTT cell proliferation assay, PC-3; format: cell-based, human; settings: Homo sapiens, PC-3, 48 h treatment in FBS-free medium, read-out: IC50 Value (Mean ± SD mM) PC-3
Experimental: (§2) PC-3, LNCaP, RWPE-1, HepG2, A549, and PANC-1 cells were purchased from the National Collection of Authenticated Cell Cultures (Shanghai, China). […] All the above cell cultures were supplied with 10% fetal bovine serum and 1% penicillin-streptomycin. RWPE-1 cells were cultured in keratinocyte serum-free medium (K-SFM, Gibco, New York, NY, USA) supplemented with 50 mg/L bovine pituitary extract and 5 μg/L epidermal growth factor (EGF). All cell lines were grown in a humidified atmosphere of 5% CO2 at 37 °C.
(§3) Cells were seeded in 100 μL complete medium in a 96-well plate, at a density of 10,000 cells/well for LNCaP and 5000 cells/well for other cells. Cells were pre-incubated for 24 h to allow for adherence before removal of complete medium and treatment with various concentrations of compounds in fetal bovine serum (FBS)-free medium for 48 h. After treatment, 20 μL/well MTT (5 mg/mL) was added and incubated for 3–4 h at 37 °C, and then 100 μL/well DMSO was added for MTT assay. The plate was shaken on an orbital shaker for 10 min. Absorbance was measured using a microplate reader at 492 nm for the MTT assay (performed in triplicates). Cell viability was normalized to control. Half inhibitory concentration (IC50) was calculated by SPSS Statistics 17.0. […] The experiments were independently repeated two to three times.

[3] = mice; cited from earlier work
PANC-1 cells = assay: Transwell migration assay, PANC-1; format: cell-based; settings: 24 h
Experimental: as §1

[4] = system: A549, HepG2, and PANC-1 cells; assay: MTT cell proliferation assay, other three cancer cell lines; format: cell-based; settings: A549, HepG2, and PANC-1, text summary
Experimental: as §2, §3

[5] = system: cleaved caspase-3 in PC-3 cells; assay: Cleaved caspase-3 expression by immunofluorescent staining and Western blot; format: cell-based, human; settings: PC-3, 0.3 mM
Experimental: After treatment with various doses of tryptamine, PC-3 cells were lysed with RIPA lysis buffer (Beyotime, Shanghai, China) containing 1 mM PMSF, and the total protein concentration was determined by BCA Protein Assay Kit (Solarbio, Beijing, China). Samples were electrophoresed on a 10% sodium dodecylsulfate (SDS) polyacrylamide gel and electrotransferred onto polyvinylidene difluoride (PVDF) membrane (Beyotime, China). After blocking with 5% BSA for 1 h, the membrane was incubated with the primary antibodies rabbit anti-cleaved caspase-3 (1:1000, ab32042, Abcam) and anti-β-actin (1:1000, 4967S, Cell Signaling Technology, Boston, MA, USA) at 4 °C overnight, followed by incubation with horseradish peroxidase (HRP)-conjugated goat anti-rabbit secondary antibody (1:2000, 7074S, Cell Signaling Technology) for 1 h at 37 °C. After washing with TBST, the bands were visualized by the enhanced chemiluminescence kit (Thermo Fisher Scientific, Carlsbad, CA, USA) and Odyssey® imaging system (LI-COR, Lincoln, NE, USA) according to the manufacturers’ instructions.
PC-3 cells (5 × 10^4 cells/well) were seeded in a 24-well chamber with a coverslip and incubated overnight. […] Fluorescence images were acquired with a laser scanning confocal microscope (LSCM, Leica, TCS SP8 MP, Heidelberg, Germany).

NCCc1c[nH]c2ccccc12 [Tryptamine]
migrated cells reduced by (PC-3 cells [1]; PC-3, 0.075 mM): 22% | percentage of migrated cells (PC-3 cells [1]; PC-3, 0.15 mM): 58% | percentage of migrated cells (PC-3 cells [1]; PC-3, 0.3 mM): 23% | tumor volume and weight compared with the control group (PC-3 xenograft tumors; intraperitoneal, 80 mg/kg once every other day for 32 days): increased tumor volume and weight | adverse effects or toxicity in the liver (PC-3 xenograft tumors; intratumoral, 1 mg/100 mm^3): without obvious signs of adverse effects or toxicity in the liver | tumor growth, tumor volume and weight (PC-3 xenograft tumors; intratumoral, 1 mg/100 mm^3 every day for 16 days): significant tumor growth delay | IC50 (PC-3 cells [2]): 0.24 ± 0.01 mM | median lethal dose (LD50) [3]: ~ 200 mg/kg | migrated cells reduced by (PANC-1 cells; PANC-1, 0.075 mM): 43% | percentage of migrated cells (PANC-1 cells; PANC-1, 0.15 mM): 45% | percentage of migrated cells (PANC-1 cells; PANC-1, 0.3 mM): 27% | IC50 [4]: 350 to 460 µM | expression of cleaved caspase-3 [5]: increased expression of cleaved caspase-3
